These are literature values, as cited in patent publication US20080255200A1, “SUBSTITUTED BENZIMIDAZOLES” (AUSPEX PHARMACEUTICALS, INC., priority 2007, published 2008).

The series has as its target gastric H^+, K^+-ATPase (Homo sapiens, UniProt P20648). The note with it: intragastric pH over 4, orally administered.

Chain of gastric H^+, K^+-ATPase (P20648 whole entry): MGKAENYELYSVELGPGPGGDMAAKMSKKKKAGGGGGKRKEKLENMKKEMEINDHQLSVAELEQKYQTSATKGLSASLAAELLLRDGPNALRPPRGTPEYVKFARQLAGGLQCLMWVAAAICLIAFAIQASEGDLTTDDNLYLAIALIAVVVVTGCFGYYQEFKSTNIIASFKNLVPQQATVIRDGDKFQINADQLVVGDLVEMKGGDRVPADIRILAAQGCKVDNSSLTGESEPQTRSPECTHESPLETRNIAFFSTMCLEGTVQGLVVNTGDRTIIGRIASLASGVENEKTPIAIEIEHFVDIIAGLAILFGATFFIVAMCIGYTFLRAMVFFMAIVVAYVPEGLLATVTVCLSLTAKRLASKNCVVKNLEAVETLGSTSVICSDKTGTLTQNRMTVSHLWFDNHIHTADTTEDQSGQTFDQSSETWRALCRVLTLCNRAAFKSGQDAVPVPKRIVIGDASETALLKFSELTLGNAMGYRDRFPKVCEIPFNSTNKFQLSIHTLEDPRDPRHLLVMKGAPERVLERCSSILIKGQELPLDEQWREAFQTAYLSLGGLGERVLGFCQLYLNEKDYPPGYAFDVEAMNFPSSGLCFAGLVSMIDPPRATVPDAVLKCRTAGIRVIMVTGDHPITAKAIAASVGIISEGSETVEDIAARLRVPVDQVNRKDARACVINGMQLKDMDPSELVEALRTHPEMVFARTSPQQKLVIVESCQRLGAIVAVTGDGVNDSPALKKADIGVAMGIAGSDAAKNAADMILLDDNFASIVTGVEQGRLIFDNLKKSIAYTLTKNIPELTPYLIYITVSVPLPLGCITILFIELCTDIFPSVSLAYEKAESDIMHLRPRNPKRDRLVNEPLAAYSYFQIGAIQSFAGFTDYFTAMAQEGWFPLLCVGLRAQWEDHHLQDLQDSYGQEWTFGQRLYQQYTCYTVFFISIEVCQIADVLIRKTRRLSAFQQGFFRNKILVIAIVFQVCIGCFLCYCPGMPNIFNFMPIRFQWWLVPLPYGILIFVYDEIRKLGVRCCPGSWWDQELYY
Chain of gastric H^+, K^+-ATPase (P51164 whole entry partner): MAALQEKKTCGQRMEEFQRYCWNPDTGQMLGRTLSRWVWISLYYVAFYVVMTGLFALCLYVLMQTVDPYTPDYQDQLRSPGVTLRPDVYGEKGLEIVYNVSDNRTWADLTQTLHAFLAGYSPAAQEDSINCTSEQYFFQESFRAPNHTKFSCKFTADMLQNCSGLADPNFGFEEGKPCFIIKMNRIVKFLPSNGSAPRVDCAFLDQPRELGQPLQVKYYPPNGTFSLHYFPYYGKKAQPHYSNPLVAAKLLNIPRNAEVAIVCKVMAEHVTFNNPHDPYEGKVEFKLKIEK

Consider `COc1ccnc(C[S+]([O-])c2nc3cc(-n4cccc4)ccc3[nH]2)c1C` (stereo not shown) [Ilaprazole, 2-(4-methoxy-3-methyl-pyridin-2-ylmethanesulfinyl)-5-pyrrol-1-yl-1H-benzoimidazole], for which the “average time intragastric pH is increased to over 4” value is 20.5 hours.
